IC50 data for seven molecules are collected here from ChEMBL document CHEMBL1143953, “Novel 2-phenylquinolin-7-yl-derived imidazo[1,5-a]pyrazines as potent insulin-like growth factor-I receptor (IGF-IR) inhibitors” (Bioorg Med Chem, 2008).

For one assay, the target named is Cytochrome P450 3A4 (Homo sapiens, UniProt P08684). The experiment in a line: Inhibition of CYP3A4. The assay is classed as ADME.
Assay [1] deals with Insulin-like growth factor 1 receptor (Homo sapiens, UniProt P08069).
Description: Inhibition of human recombinant full length IGF1R expressed in mouse 3T3 cells

Bounds are passed on as bounds.

Sequence of Cytochrome P450 3A4 (P08684 whole entry): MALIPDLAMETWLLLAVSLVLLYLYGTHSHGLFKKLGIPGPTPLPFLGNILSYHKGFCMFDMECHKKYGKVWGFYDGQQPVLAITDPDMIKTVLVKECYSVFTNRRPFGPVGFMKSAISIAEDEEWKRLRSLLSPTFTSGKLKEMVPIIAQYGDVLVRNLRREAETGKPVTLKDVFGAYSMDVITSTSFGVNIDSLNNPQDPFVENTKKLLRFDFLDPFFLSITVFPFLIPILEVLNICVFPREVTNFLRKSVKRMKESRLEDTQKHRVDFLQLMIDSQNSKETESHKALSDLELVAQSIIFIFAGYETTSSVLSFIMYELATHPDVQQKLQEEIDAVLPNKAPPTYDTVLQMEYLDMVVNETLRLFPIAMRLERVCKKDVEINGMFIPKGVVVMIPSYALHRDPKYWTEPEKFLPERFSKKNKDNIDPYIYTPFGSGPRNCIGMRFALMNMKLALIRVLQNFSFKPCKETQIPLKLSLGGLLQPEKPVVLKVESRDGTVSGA
Sequence of Insulin-like growth factor 1 receptor (P08069 31-736 limits assumed): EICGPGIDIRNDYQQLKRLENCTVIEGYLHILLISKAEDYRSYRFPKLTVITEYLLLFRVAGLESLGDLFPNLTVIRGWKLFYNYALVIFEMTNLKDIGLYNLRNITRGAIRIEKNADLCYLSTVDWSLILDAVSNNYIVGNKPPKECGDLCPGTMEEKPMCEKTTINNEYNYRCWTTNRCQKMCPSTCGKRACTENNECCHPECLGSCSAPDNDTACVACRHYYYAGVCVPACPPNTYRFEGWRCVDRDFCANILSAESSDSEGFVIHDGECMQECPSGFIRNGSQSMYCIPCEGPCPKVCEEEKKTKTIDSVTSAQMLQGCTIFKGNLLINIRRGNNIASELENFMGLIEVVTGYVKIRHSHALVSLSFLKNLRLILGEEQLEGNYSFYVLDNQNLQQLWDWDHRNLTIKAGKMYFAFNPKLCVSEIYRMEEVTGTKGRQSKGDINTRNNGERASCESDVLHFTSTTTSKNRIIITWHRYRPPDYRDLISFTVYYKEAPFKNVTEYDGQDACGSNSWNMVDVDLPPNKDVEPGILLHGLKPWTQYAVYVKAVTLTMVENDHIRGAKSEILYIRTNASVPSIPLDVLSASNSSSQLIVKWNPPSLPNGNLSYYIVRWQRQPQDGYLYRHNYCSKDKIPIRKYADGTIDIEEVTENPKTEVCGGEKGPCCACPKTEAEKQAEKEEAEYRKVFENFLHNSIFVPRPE
Sequence of Insulin-like growth factor 1 receptor (P08069 741-1367 limits assumed): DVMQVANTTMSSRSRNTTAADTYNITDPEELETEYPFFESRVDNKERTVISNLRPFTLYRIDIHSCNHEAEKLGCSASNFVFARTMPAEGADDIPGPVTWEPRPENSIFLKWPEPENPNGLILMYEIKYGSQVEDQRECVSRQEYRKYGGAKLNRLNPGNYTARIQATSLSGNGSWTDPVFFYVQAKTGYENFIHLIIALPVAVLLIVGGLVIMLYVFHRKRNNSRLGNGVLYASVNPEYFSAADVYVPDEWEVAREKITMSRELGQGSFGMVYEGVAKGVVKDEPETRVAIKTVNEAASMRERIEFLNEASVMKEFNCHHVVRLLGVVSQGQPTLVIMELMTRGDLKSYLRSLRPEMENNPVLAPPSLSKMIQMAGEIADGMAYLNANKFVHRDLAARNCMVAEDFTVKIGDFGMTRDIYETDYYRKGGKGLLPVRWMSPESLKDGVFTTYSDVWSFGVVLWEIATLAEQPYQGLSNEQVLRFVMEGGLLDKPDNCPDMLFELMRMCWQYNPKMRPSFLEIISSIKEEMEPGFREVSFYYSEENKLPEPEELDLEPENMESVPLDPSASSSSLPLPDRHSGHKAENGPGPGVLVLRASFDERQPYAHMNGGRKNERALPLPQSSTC

`CN(C)C[C@H]1C[C@@H](c2nc(-c3ccc4ccc(-c5ccccc5)nc4c3)c3c(N)nccn32)C1` had an IC50 against Cytochrome P450 3A4 of 15 µM.

Molecule `Nc1nccn2c1c(-c1ccc3ccc(-c4ccccc4)nc3c1)nc2[C@H]1C[C@@H](N2CCCCC2)C1` yielded an IC50 against Cytochrome P450 3A4 of 7.5 µM.

`CN(C)C[C@H]1C[C@H](c2nc(-c3ccc4ccc(-c5ccccc5)nc4c3)c3c(N)nccn32)C1` yielded an IC50 on Cytochrome P450 3A4 of 15 µM.

With `Nc1nccn2c1c(-c1ccc3ccc(-c4ccccc4)nc3c1)nc2[C@H]1C[C@@H](N2CCSCC2)C1`, at Cytochrome P450 3A4, the midpoint of inhibition, the IC50, lay at 7.8 µM.

Consider `Nc1nccn2c(C3CCC3)nc(-c3ccc4cccnc4c3)c12`, for which the IC50 in assay [1] was more than 10 µM.

In assay [1], `Oc1nccn2c(C3CCC3)nc(-c3ccc4ccc(-c5ccccc5)nc4c3)c12` gave an IC50 of more than 10 µM.

Take `Nc1nccn2c1c(-c1ccc3ccc(-c4ccccc4)nc3c1)nc2[C@H]1C[C@@H](N2CCC2)C1`: on Cytochrome P450 3A4, the IC50 is more than 20 µM.

Usually IC50 stands for the point on the concentration scale where inhibition reaches its midpoint.
